Measurements taken from patent US9867376B2, “Herbicidal compositions comprising N-tetrazol-5-yl)- or N-(triazol-5-yl)arylcarboxamides” (priority 2012, dated 2018).

Key:
Format in all cases: in vivo
Galium aparine = test: Field trial, post-emergence, visual scoring; settings: alone
Protocol: (§1) The tests were conducted outdoors (plot trials, 10 m^2 per plot, 2 repetitions, spray application with 200-300 liters of water per hectare). Crops and broad-leaved weeds/weed grasses were sown under customary field conditions. In addition, a natural weed flora also appeared. Application was by the post-emergence method. The application rates of the herbicidally active compounds applied on their own or in combinations are likewise shown in the tables below. Evaluations were by visual scoring (using a 0-100% scale) after application by comparison of treated and untreated test variants.
(§2) The abbreviations denote: • a.i.=active ingredient • E^C=expected value according to Colby (E^C=A+B−A×B100) • Δ=difference (%) of the measured value to the expected value (%) (measured value minus expected value)
(§3) Evaluation: • measured value E is greater than E^C:→synergism (+Δ) • measured value E equals E^C:→additive effect • measured value E is smaller than E^C:→antagonism (−Δ)

Setaria viridis [1] = test: Field trial, post-emergence, visual scoring; settings: alone
Protocol: as §1, §2, §3

Lolium multiflorum = test: Field trial, post-emergence, visual scoring; settings: alone
Protocol: as §1, §2, §3

[2] = test system: broad-leaved weeds/weed grasses; test: Field trial, post-emergence, visual scoring (species not listed above); settings: dosage 25 g of a.i./ha
Protocol: as §1, §2, §3

Echinochloa crus-galli = test: Greenhouse trial, post-emergence, visual herbicidal effect
Protocol: (§4) The weed seeds were sown in pots (diameter 8 cm) with sandy loam soil and germinated under optimum conditions. The herbides were applied by the post-emergence method onto the pots with the cultures, at a spray volume of 300 I/ha. The herbicides were applied on their own and in combination. The trial was conducted in a greenhouse under optimum growth conditions. The herbicidal effects were assessed visually by comparison of untreated and treated plants. The percentages mean: 0%=no effects, 100%=the plants die off completely). The percentages are used to calculate interactions between individual treatments and combination treatment according to S. R. Colby, Weeds 15, pages 20 to 22 (1967).
as §2, §3

Cassia obtusifolia = test: Field trial, post-emergence, visual scoring; settings: alone
Protocol: as §1, §2, §3

Phalaris minor = test: Greenhouse trial, post-emergence, visual herbicidal effect; settings: Table 5-03, greenhouse, alone, 2 g of a.i./ha
Protocol: as §4, §2, §3

Avena fatua = test: as above; settings: alone
Protocol: as §4, §2, §3

Viola tricolor = test: as above; settings: alone
Protocol: as §4, §2, §3

Abutilon theophrasti = test: Field trial, post-emergence, visual scoring; settings: Table 5-17, field, alone
Protocol: as §1, §2, §3

Sida spinosa = test: Field trial, post-emergence, visual scoring; settings: alone
Protocol: as §1, §2, §3

Portulaca oleracea = test: Field trial, post-emergence, visual scoring; settings: alone
Protocol: as §1, §2, §3

Veronica hederifolia = test: Field trial, post-emergence, visual scoring; settings: alone, 25 g of a.i./ha
Protocol: as §1, §2, §3

Pharbitis purpurea = test: Greenhouse trial, post-emergence, visual herbicidal effect; settings: Table 5-72, greenhouse, alone, 4 g of a.i./ha
Protocol: as §4, §2, §3

Bidens pilosa = test: as above; settings: alone
Protocol: as §4, §2, §3

Xanthium strumarium = test: as above; settings: alone
Protocol: as §4, §2, §3

Digitaria sanguinalis = test: as above; settings: Table 5-68, greenhouse, alone, 8 g of a.i./ha
Protocol: as §4, §2, §3

Brachiaria platyphylla = test: as above
Protocol: as §4, §2, §3

Setaria viridis [3] = test: as above; settings: Table 5-70, greenhouse, alone, 4 g of a.i./ha
Protocol: as §4, §2, §3

Papaver rhoeas = test: as above; settings: alone
Protocol: as §4, §2, §3

Polygonum convolvulus = test: as above; settings: alone
Protocol: as §4, §2, §3

Centaurea cyanis = test: as above; settings: alone
Protocol: as §4, §2, §3

Amaranthus retroflexus = test: Field trial, post-emergence, visual scoring; settings: Table 5-48, field, alone, 50 g of a.i./ha
Protocol: as §1, §2, §3

In the case of Cc1cc(Cl)ccc1OCC(=O)O [MCPA], the “Activity [%] against Galium aparine” value (Galium aparine; Table 5-61, field, 280 g of a.i./ha) was 0%, the “Activity [%] against Setaria viridis” value (Setaria viridis [1]; Table 5-26, field, 280 g of a.i./ha) was 0% and the “Activity [%] against Setaria viridis” value (Setaria viridis [1]; Table 5-80, field, 280 g of a.i./ha) was 0%. For the same compound, the “Activity [%] against Lolium multiflorum” value (Lolium multiflorum; Table 5-54, field, 280 g of a.i./ha) was 0%.
Cn1nnnc1NC(=O)c1ccc(C(F)(F)F)nc1Cl [A4-7] was tested, and the “Activity [%] against Stellaria media” value ([2]; Table 5-116) was 60% and the “Activity [%] against Echinochloa crus-galli” value (Echinochloa crus-galli; Greenhouse, dosage 3 g of a.i./ha, Table 5-115) was 50%.
In the case of Cc1ccc2c(c1)[C@H](Nc1nc(N)nc(C(C)F)n1)[C@@H](C)C2 (stereo partly shown) [indaziflam], the “Activity [%] against Cassia obtusifolia” value (Cassia obtusifolia; Table 5-24, field, 25 g of a.i./ha) was 65%.
For Cc1c(C(=O)c2cnn(C)c2O)ccc(S(C)(=O)=O)c1C1=NOCC1 [topramezone], the “Activity [%] against Setaria viridis” value (Setaria viridis [1]; Table 5-23, field, 9 g of a.i./ha) was 30%.
In the case of Cn1nnnc1NC(=O)c1ccc(C(F)(F)F)cc1S(C)(=O)=O [A1-2], the “Activity [%] against Galium aparine” value (Galium aparine; Table 5-04, field, 25 g of a.i./ha) was 70%, the “Activity [%] against Phalaris minor” value (Phalaris minor) was 0% and the “Activity [%] against Avena fatua” value (Avena fatua; Table 5-01, greenhouse, 2 g of a.i./ha) was 0%. For the same compound, the “Activity [%] against Viola tricolor” value (Viola tricolor; Table 5-02, greenhouse, 2 g of a.i./ha) was 60%.
O=C(Nc1ccc(F)cc1F)c1cccnc1Oc1cccc(C(F)(F)F)c1 [diflufenican] was tested, and the “Activity [%] against Lolium multiflorum” value (Lolium multiflorum; Table 5-58, field, 120 g of a.i./ha) was 10%.
In the case of CCCn1nnnc1NC(=O)c1ccc(C(F)(F)F)c(S(C)(=O)=O)c1C [A1-9], the “Activity [%] against Abutilon theophrasti” value (Abutilon theophrasti; 20 g of a.i./ha) was 78%, the “Activity [%] against Sida spinosa” value (Sida spinosa; Table 5-10, field, 10 g of a.i./ha) was 60% and the “Activity [%] against Sida spinosa” value (Sida spinosa; Table 5-11, field, 10 g of a.i./ha) was 60%. For the same compound, the “Activity [%] against Sida spinosa” value (Sida spinosa; Table 5-21, field, 10 g of a.i./ha) was 60%, the “Activity [%] against Cassia obtusifolia” value (Cassia obtusifolia; Table 5-12, field, 20 g of a.i./ha) was 0% and the “Activity [%] against Cassia obtusifolia” value (Cassia obtusifolia; Table 5-24, field, 20 g of a.i./ha) was 0%. For the same compound, the “Activity [%] against Cassia obtusifolia” value (Cassia obtusifolia; Table 5-25, field, 25 g of a.i./ha) was 65%, the “Activity [%] against Portulaca oleracea” value (Portulaca oleracea; Table 5-13, field, 20 g of a.i./ha) was 43% and the “Activity [%] against Portulaca oleracea” value (Portulaca oleracea; Table 5-14, field, 20 g of a.i./ha) was 43%. For the same compound, the “Activity [%] against Portulaca oleracea” value (Portulaca oleracea; Table 5-15, field, 20 g of a.i./ha) was 43%, the “Activity [%] against Portulaca oleracea” value (Portulaca oleracea; Table 5-16, field, 20 g of a.i./ha) was 43% and the “Activity [%] against Portulaca oleracea” value (Portulaca oleracea; Table 5-18, field, 20 g of a.i./ha) was 43%. The “Activity [%] against Portulaca oleracea” value (Portulaca oleracea; Table 5-19, field, 20 g of a.i./ha) was 43%, the “Activity [%] against Portulaca oleracea” value (Portulaca oleracea; Table 5-20, field, 20 g of a.i./ha) was 43% and the “Activity [%] against Portulaca oleracea” value (Portulaca oleracea; Table 5-22, field, 10 g of a.i./ha) was 38%. For the same compound, the “Activity [%] against Setaria viridis” value (Setaria viridis [1]; Table 5-23, field, 10 g of a.i./ha) was 15% and the “Activity [%] against Setaria viridis” value (Setaria viridis [1]; Table 5-26, field, 25 g of a.i./ha) was 7%.
In the case of COC[C@H](C)N(C(=O)CCl)c1c(C)csc1C [dimethenamide-P], the “Activity [%] against Abutilon theophrasti” value (Abutilon theophrasti; 500 g of a.i./ha) was 25%.
For COCCOCc1c(S(C)(=O)=O)ccc(C(=O)Nc2nnnn2C)c1Cl [A1-63], the “Activity [%] against Veronica hederifolia” value (Veronica hederifolia; Table 5-74, field) was 68%, the “Activity [%] against Pharbitis purpurea” value (Pharbitis purpurea) was 35% and the “Activity [%] against Bidens pilosa” value (Bidens pilosa; Table 5-71, greenhouse, 8 g of a.i./ha) was 50%. For the same compound, the “Activity [%] against Xanthium strumarium” value (Xanthium strumarium; Table 5-73, greenhouse, 8 g of a.i./ha) was 80%, the “Activity [%] against Echinochloa crus-galli” value (Echinochloa crus-galli; Table 5-69, greenhouse, alone, 8 g of a.i./ha) was 85% and the “Activity [%] against Digitaria sanguinalis” value (Digitaria sanguinalis) was 45%. For the same compound, the “Activity [%] against Brachiaria platyphylla” value (Brachiaria platyphylla; Table 5-67, greenhouse, alone, 8 g of a.i./ha) was 10% and the “Activity [%] against Setaria viridis” value (Setaria viridis [3]) was 50%.
In the case of COCc1nc(C(F)(F)F)ccc1C(=O)Nc1nnnn1C [A4-2], the “Activity [%] against Stellaria media” value ([2]; Table 5-114) was 63% and the “Activity [%] against Brachiaria platyphylla” value (Brachiaria platyphylla; Greenhouse, dosage 1 g of a.i./ha, Table 5-113) was 0%.
With Cc1c(C(=O)Nc2nnnn2C)ccc(C(F)(F)F)c1S(C)(=O)=O [A1-7] the “Activity [%] against Papaver rhoeas” value (Papaver rhoeas; Table 5-06, greenhouse, 3 g of a.i./ha) was 60%, the “Activity [%] against Polygonum convolvulus” value (Polygonum convolvulus; Table 5-08, greenhouse, 3 g of a.i./ha) was 10% and the “Activity [%] against Avena fatua” value (Avena fatua; Table 5-05, greenhouse, 3 g of a.i./ha) was 0%. The “Activity [%] against Avena fatua” value (Avena fatua; Table 5-07, greenhouse, 3 g of a.i./ha) was 0% and the “Activity [%] against Viola tricolor” value (Viola tricolor; Table 5-09, greenhouse, 3 g of a.i./ha) was 50%.
Cc1c(C(=O)Nc2nnnn2C)ccc(S(C)(=O)=O)c1-n1cccn1 [A1-26] was tested, and the “Activity [%] against Papaver rhoeas” value (Papaver rhoeas; Table 5-39, greenhouse, 6 g of a.i./ha) was 50%, the “Activity [%] against Papaver rhoeas” value (Papaver rhoeas; Table 5-41, greenhouse, 3 g of a.i./ha) was 30% and the “Activity [%] against Centaurea cyanis” value (Centaurea cyanis; Table 5-38, greenhouse, 3 g of a.i./ha) was 40%. The “Activity [%] against Centaurea cyanis” value (Centaurea cyanis; Table 5-40, greenhouse, 6 g of a.i./ha) was 60% and the “Activity [%] against Viola tricolor” value (Viola tricolor; Table 5-42, greenhouse, 3 g of a.i./ha) was 50%.
CSc1nnc(C(C)(C)C)c(=O)n1N [metribuzin] was tested, and the “Activity [%] against Sida spinosa” value (Sida spinosa; Table 5-21, field, 50 g of a.i./ha) was 25% and the “Activity [%] against Portulaca oleracea” value (Portulaca oleracea; Table 5-16, field, 50 g of a.i./ha) was 0%.
With COc1c(S(C)(=O)=O)ccc(C(=O)Nc2nnnn2C)c1Cl [A1-67] the “Activity [%] against Veronica hederifolia” value (Veronica hederifolia; Table 5-79, field) was 75%, the “Activity [%] against Setaria viridis” value (Setaria viridis [1]; Table 5-80, field, 25 g of a.i./ha) was 65% and the “Activity [%] against Xanthium strumarium” value (Xanthium strumarium; Table 5-77, greenhouse, 4 g of a.i./ha) was 0%. For the same compound, the “Activity [%] against Polygonum convolvulus” value (Polygonum convolvulus; Table 5-78, greenhouse, 4 g of a.i./ha) was 10%.
In the case of O=C(O)CNCP(=O)(O)O [glyphosate], the “Activity [%] against Cassia obtusifolia” value (Cassia obtusifolia; Table 5-12, field, 200 g of a.i./ha) was 65%.
For O=C(O)CNCP(=O)([O-])O.[K+] [glyphosate-potassium], the “Activity [%] against Sida spinosa” value (Sida spinosa; Table 5-11, field, 200 g of a.i./ha) was 30%.
In the case of CP(=O)(O)CCC(N)C(=O)O (stereo not shown) [glufosinate-ammonium], the “Activity [%] against Sida spinosa” value (Sida spinosa; Table 5-10, field, 125 g of a.i./ha) was 50%.
For CCc1c(C(=O)Nc2nnnn2C)ccc(Cl)c1SC [A1-36], the “Activity [%] against Amaranthus retroflexus” value (Amaranthus retroflexus) was 0%, the “Activity [%] against Bidens pilosa” value (Bidens pilosa; Table 5-46, greenhouse, 2 g of a.i./ha) was 45% and the “Activity [%] against Bidens pilosa” value (Bidens pilosa; Table 5-47, greenhouse, 4 g of a.i./ha) was 30%. The “Activity [%] against Brachiaria platyphylla” value (Brachiaria platyphylla; Table 5-45, greenhouse, alone, 2 g of a.i./ha) was 25%.
